Measured values from patent US20130053395A1, “PYRAZOLOPYRIDINE KINASE INHIBITORS” (VERTEX PHARMACEUTICALS INCORPORATED, priority 2010, published 2013).

What was measured:
PKC theta kinase = PKC theta kinase (Homo sapiens, UniProt Q04759); assay: PKC theta kinase coupled-enzyme (NADH) Ki assay; format: biochemical; settings: 18 nM PKC theta, 240 μM ATP, 30° C., initial rate at 340 nM
Experimental: An assay buffer solution was prepared which consisted of 100 mM HEPES (pH 7.5), 10 mM MgCl2, 25 mM NaCl, 0.1 mM EDTA and 0.01% Brij. An enzyme buffer containing reagents to final assay concentrations of 0.00001% Triton X-100, 200 μg/mL Phosphatidylserine, 20 μg/mL Diacylglycerol, 360 μM NADH, 3 mM phosphoenolpyruvate, 70 μg/mL pyruvate kinase, 24 μg/mL lactate dehydrogenase, 2 mM DTT, 100 μM substrate peptide ([…] SEQ ID NO. 1) and 18 nM PKC theta kinase was prepared in assay buffer. To 60 μL of this enzyme buffer, in a 384 well plate, was added 2 μL of VRT stock solution in DMSO. The mixture was allowed to equilibrate for 10 mins at 30° C. The enzyme reaction was initiated by the addition of 5 μL stock ATP solution prepared in assay buffer to a final assay concentration of 240 μM. Initial rate data was determined from the rate of change of absorbance at 340 nm (corresponding to stoichiometric consumption of NADH) using a Molecular Devices Spectramax plate reader (Sunnyvale, Calif.) over 15 mins at 30° C. For each Ki determination 12 data points covering the VRT concentration range of 0-20 μM were obtained in duplicate (DMSO stocks were prepared from an initial 10 mM VRT stock with subsequent 1:2 serial dilutions). Ki values were calculated from initial rate data by non-linear regression using the Prism software package (Prism 4.0a, Graphpad Software, San Diego, Calif.).

PKC delta kinase = PKC delta kinase (Homo sapiens, UniProt Q05655); assay: PKC delta kinase coupled-enzyme (NADH) Ki assay; format: biochemical; settings: 46 nM PKC delta, 150 μM ATP, 30° C., initial rate at 340 nM
Experimental: An assay buffer solution was prepared which consisted of 100 mM HEPES (pH 7.5), 10 mM MgCl2, 25 mM NaCl, 0.1 mM EDTA and 0.01% Brij. An enzyme buffer containing reagents to final assay concentrations of 0.002% Triton X-100, 200 μg/mL Phosphatidylserine, 20 μg/mL Diacylglycerol, 360 μM NADH, 3 mM phosphoenolpyruvate, 70 μg/mL pyruvate kinase, 24 μg/mL lactate dehydrogenase, 2 mM DTT, 150 μM substrate peptide ([…] SEQ ID NO. 2) and 46 nM PKC delta kinase was prepared in assay buffer. To 16 μL of this enzyme buffer, in a 384 well plate, was added 1 μL of VRT stock solution in DMSO. The mixture was allowed to equilibrate for 10 mins at 30° C. The enzyme reaction was initiated by the addition of 16 μL stock ATP solution prepared in assay buffer to a final assay concentration of 150 μM. Initial rate data was determined from the rate of change of absorbance at 340 nm (corresponding to stoichiometric consumption of NADH) using a Molecular Devices Spectramax plate reader (Sunnyvale, Calif.) over 15 mins at 30° C. For each Ki determination 12 data points covering the VRT concentration range of 0-20 μM were obtained in duplicate (DMSO stocks were prepared from an initial 10 mM VRT stock with subsequent 1:2 serial dilutions). Ki values were calculated from initial rate data by non-linear regression using the Prism software package (Prism 4.0a, Graphpad Software, San Diego, Calif.).

Sequence of PKC theta kinase (Q04759 whole entry): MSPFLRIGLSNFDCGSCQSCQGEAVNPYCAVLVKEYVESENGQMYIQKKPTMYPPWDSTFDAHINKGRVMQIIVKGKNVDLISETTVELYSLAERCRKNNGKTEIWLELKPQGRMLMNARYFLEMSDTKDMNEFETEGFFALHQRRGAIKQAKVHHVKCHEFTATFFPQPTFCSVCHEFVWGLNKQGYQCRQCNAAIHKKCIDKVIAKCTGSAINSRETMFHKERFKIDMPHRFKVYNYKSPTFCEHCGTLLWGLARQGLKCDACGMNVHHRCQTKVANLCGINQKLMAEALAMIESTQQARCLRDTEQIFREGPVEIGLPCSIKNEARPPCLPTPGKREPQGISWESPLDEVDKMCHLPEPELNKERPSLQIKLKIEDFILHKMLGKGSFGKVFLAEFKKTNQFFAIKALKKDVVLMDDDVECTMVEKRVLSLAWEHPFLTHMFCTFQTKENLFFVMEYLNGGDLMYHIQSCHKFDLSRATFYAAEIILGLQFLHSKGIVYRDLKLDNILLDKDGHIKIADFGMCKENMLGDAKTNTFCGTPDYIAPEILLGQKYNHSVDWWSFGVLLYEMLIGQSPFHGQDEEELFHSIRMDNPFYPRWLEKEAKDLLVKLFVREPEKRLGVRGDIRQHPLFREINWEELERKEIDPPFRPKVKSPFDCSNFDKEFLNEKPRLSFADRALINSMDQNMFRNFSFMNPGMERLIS
Sequence of PKC delta kinase (Q05655 whole entry): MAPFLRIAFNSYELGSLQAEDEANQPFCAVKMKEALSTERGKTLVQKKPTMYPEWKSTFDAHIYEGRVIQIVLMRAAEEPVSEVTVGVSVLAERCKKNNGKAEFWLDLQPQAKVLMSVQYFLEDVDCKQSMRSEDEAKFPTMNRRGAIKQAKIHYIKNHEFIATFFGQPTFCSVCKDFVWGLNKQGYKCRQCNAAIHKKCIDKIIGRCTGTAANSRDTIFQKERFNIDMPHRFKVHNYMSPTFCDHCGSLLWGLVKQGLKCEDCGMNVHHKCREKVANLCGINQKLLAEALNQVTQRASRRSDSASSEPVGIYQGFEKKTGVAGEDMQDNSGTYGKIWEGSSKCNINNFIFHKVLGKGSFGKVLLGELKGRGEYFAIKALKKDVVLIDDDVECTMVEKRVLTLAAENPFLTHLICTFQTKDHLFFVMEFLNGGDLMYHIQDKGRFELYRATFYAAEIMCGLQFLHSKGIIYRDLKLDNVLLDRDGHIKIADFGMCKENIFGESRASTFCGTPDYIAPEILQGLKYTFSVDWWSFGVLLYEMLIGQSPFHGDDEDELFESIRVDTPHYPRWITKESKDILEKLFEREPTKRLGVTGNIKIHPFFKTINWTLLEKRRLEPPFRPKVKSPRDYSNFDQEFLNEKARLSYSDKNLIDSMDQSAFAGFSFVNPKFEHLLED

Structure (SMILES) | Ki (PKC theta kinase) [nM] | Ki (PKC delta kinase) [nM]
CC(C)(O)[C@@H]1CN(c2nc(-c3n[nH]c4ncccc34)c(F)cc2F)CCN1 [Compound 1, (S)-2-(4-(3,5-difluoro-6-(1H-pyrazolo[3,4-b]pyridin-3-yl)pyridin-2-yl)piperazin-2-yl)propan-2-ol] | < 50 | < 500
OC1(C2CN(c3nc(-c4n[nH]c5ncccc45)c(F)cc3F)CCN2)CCC1 (centres unmarked) [Compound 2] | < 1 | < 500
CCC(O)(CC)[C@@H]1CN(c2nc(-c3n[nH]c4ncccc34)c(F)cc2F)CCN1 [Compound 3] | < 1 | < 500
OC1([C@@H]2CN(c3nc(-c4n[nH]c5ncccc45)c(F)cc3Cl)CCN2)CC1 [Compound 4] | < 1 | < 50
CC(C)(O)[C@@H]1CN(c2nc(-c3n[nH]c4ncccc34)c(F)cc2Cl)CCN1 [Compound 5] | < 1 | < 50
OC1(C2CN(c3nc(-c4n[nH]c5ncccc45)c(F)cc3Cl)CCN2)CCC1 (centres unmarked) [Compound 6] | < 1 | < 50
CC(C)C[C@@H]1CN(c2nc(-c3n[nH]c4ncccc34)c(F)cc2F)CCN1 [Compound 7] | < 50 | 
CC(C)C[C@@H]1CN(c2nc(-c3n[nH]c4ncccc34)c(F)cc2Cl)CCN1 [Compound 8] | < 50 | 
OC[C@@H]1CN(c2nc(-c3n[nH]c4ncccc34)c(F)cc2Cl)CCN1 [Compound 9] | < 50 | < 50
OC[C@@H]1CN(c2nc(-c3n[nH]c4ncccc34)c(F)cc2F)CCN1 [Compound 10] | < 500 | > 1250
CC(C)C[C@@H]1CN(c2nc(-c3n[nH]c4ncccc34)c(C#N)cc2F)CCN1 [Compound 11, (R)-5-fluoro-6-(3-isobutylpiperazin-1-yl)-2-(1H-pyrazolo[3,4-b]pyridin-3-yl)nicotinonitrile] | < 2800 | > 1250
